Experimental data published in patent US8535617B2, “Blood cell barrier for a lateral flow device” (Kimberly-Clark Worldwide, Inc., priority 2007, dated 2013).

Legend:
fresh human blood [1] = assay: Blood separation on filter paper strips with a linoleic acid line, eluted with water; conditions: Whatman filter paper strip
Description: (§1) A circle of Whatman filter paper (Qualitative 18.5 cm) was cut into strips (16 cm×2 cm). A thin line of linoleic acid was placed 8 cm from the bottom end of the strip using a syringe with needle, to lay down a thin line of liquid (approximately 5-10 μl). Next, a drop (20 μl) of fresh human blood was placed onto the strip 4 cm up from the bottom. A control strip was prepared in a similar manner except no linoleic acid was placed on the control strip. The strips were then attached to a glass rod, being 6 cm away from each other, using scotch tape. In a manner similar to paper chromatography, the strips were placed into a tall beaker (2 liter volume) containing deionized water (50 ml) in such a manner that the bottom end of the paper strips just entered the water. The water wicked up the vertically hanging strips.
The system was allowed to run for another 20 minutes after which time the strips were taken out and allowed to air dry. Both strips were then sprayed with a ninhydrin spray to detect amino acids. […] The control had traces present along the length and a strong presence where the blood spot had stopped.

fresh human blood [2] = assay: Blood separation on nitrocellulose lateral flow membrane strips with a linoleic acid line
Description: as §1
The experiment described in Example 1 was repeated but using nitrocellulose lateral flow membrane strips (Bangs Laboratories Inc., Fishers Ind.) in place of the paper strips. The same procedure was conducted and at the end of the flow period (20 minutes) the strips were allowed to dry. […] In contrast, the control strip allowed the blood to travel up the entire length of the strip. […]

Compound: CCCCCC=CCC=CCCCCCCCC(=O)O [linoleic acid, 9,12-octadecadienoic acid]
- movement of blood spot on strip (fresh human blood [1]; 20 μl blood, line of approximately 5-10 μl linoleic acid, eluted by deionized water): halt at the line where the linoleic acid had been placed
- ninhydrin spray detection of amino acids (fresh human blood [1]; after air drying, visual purple color): presence of amino acids after the line
- movement of blood spot on strip (fresh human blood [2]; nitrocellulose lateral flow membrane strip, flow period 20 minutes): halted at the linoleic acid line
- phenolphthalin / 3% hydrogen peroxide spot test for dried blood and hemoglobin (fresh human blood [2]; nitrocellulose strip, beyond the linoleic acid line, visual pink color): no pink color developed
